Laboratory results taken from US10603289B2, “Process for the manufacture of ajoene derivatives” (DANMARKS TEKNISKE UNIVERSITET, priority 2010, dated 2020).

Assays:
P. aeruginosa cultures = experiment: Growth inhibitory effect on exponential growing cultures; assay type: cell-based; conditions: 10, 20, 40 and 80 μg/ml ajoene; E:Z 1:4
Method: DNA microarray analysis was used to identify genes regulated by ajoene treatment. As a reference we have used the QS regulon previously identified by Hentzer et al., [M. Hentzer et al., EMBO J., 2003, 22, p. […] Exponential growing P. aeruginosa cultures were treated with the following four concentrations of ajoene; 10 μg/ml (42.7 μM), 20 μg/ml (85.4 μM), 40 μg/ml (170.8 μM) and 80 μg/ml (341.6 μM). (E,Z) ajoene having an E:Z ratio of 1:4 was used. […] The samples were retrieved at an OD600 nm of 2.0 (optical density) because previous investigations have shown the highest activity among the QS genes at that cell density. Gene expression of the treated cultures was compared to an untreated control.

wild-type P. aeruginosa = experiment: Foreign-body (silicone tube implant) infection model; assay type: in vivo, mice
Method: To examine the effect of a combination treatment with ajoene and tobramycin in vivo we used an foreign-body infection model [L. D. Christensen et al., Microbiology, 2007, 153, p. 2312-2320]. Silicone tube implants with a size of 4 mm (inner diameter 4 mm/outer diameter 6 mm) pre-colonized with wild-type P. aeruginosa, were inserted into the peritoneal cavity of mice. Treatments were injected subcutaneously every 24 hours, where ajoene and tobramycin treatment were initiated two days pre-insertion and 24 hours post-insertion, respectively. 72 hours after insertion the implants were removed from the mice and the number of colony-forming units per implant was determined. […] (E,Z) ajoene having an E:Z ratio of 1:4 was used.

lasB = experiment: RT-PCR verification of the microarray data; assay type: cell-based, P. aeruginosa; conditions: 80 μg/ml ajoene; E:Z 1:4
Method: (§1) To verify the microarray data, RT-PCR was performed with two of the key QS genes; lasB and rhlA (see FIG. 3). When comparing the two methods the repression of both the lasB and rhlA gene expression follow the same trend, with a general slightly increase in fold reduction observed with the RT-PCR based method. […] The expression of rhlA is primarily controlled by the Rhl QS system and the signal molecule BHL whereas the expression of lasB is affected by both the Las and the Rhl QS systems and the concentration of the signal molecules OdDHL and BHL. According to Rasmussen et al., [Rasmussen et al., Microbiology, 2005, 151, p. 1325-1340], the genes listed in table 3 are (except prpL which regulation is entirely governed by the Las QS system) subject to regulation by both the Las and Rhl QS systems. […] (E,Z) ajoene having an E:Z ratio of 1:4 was used in these experiments.

rhlA = experiment: RT-PCR verification of the microarray data; assay type: cell-based, P. aeruginosa; conditions: 80 μg/ml ajoene; E:Z 1:4
Method: as §1

[1] = test system: biofilms of P. aeruginosa PAO1; experiment: In vitro flow cell biofilm killing, live dead stains and CSLM; assay type: cell-based; conditions: tobramycin or ajoene only
Method: Dead cells are stained with the DNA stain PI (Dark grey/black). The biofilm were visualized with CSLM. C) Implant model treated with ajoene and tobramycin.
3873-3880]. It was however unknown what was the active ingredient in the garlic extract. Thus. biofilms of P. aeruginosa strain were either grown in the presence or absence of 100 μg/ml ajoene. At day three the biofilms were treated with 10 μg/ml tobramycin for 24 hours. […] 10 μg/ml tobramycin was therefore chosen for the present study.

P. aeruginosa PAO1 = assay type: in vivo
Method: Mice were sacrificed on day one or day three post-infection and the contents of bacteria in the lungs were determined. Open squares indicate bacterial lung content per lung for each individual mouse. The median values are indicated with a filled black square. The statistic significance of difference in clearance was tested by a Mann-Whitney U test (analysis of nonparametric data) and p-values for the difference at day one and day three were 0.9 and 0.002 respectively.
In this study ajoene was administered prophylactic and subsequently continued after infection. Injections were given subcutaneous in the peritoneum. We performed three individual in vivo treatment experiments with ajoene in the mouse model of pulmonary infection using the P. aeruginosa PAO1. BALB/c mice were intracheally challenged (at day 0) with alginate beads containing 1.5×10^8 CFU/ml P. aeruginosa. The two groups of mice were either untreated (placebo) or treated with ajoene 25 μg/g mouse once a day. The mice were given two days of prophylactic treatment or placebo prior to bacterial challenge. Treatment was continued for three days. […] When combining the experiments a significant difference on day three was seen (p<0.002) with a 500 fold difference in clearance between the groups (FIG. 7). This is concordant with the results obtained by Bjarnsholt et al (2005) in a similar lung infection model in with raw garlic extract was used as treatment [T. Bjarnsholt et al., Microbiology, 2005, 151, p. 3873-3880].
This highlights that a synthesis providing a sufficiently pure “crude” ajoene product is essential in order to avoid the use of HPLC purification, as this step has a detrimental effect on biological activity. […] (E,Z) ajoene having an E:Z ratio of 1:4 was used.

[2] = Biological activity after further purification, assays as described in the examples; conditions: after column chromatography further purified, e.g. reverse phase HPLC; or isolated pure isomers
Source text: The purity of (E,Z)-ajoene after the above procedure may be 95-99.5%, such as 97-99.5%, 98-99.5%, 99-99.5% such as about 99.5%. […] This was also found when isolating pure (E)-ajoene and/or pure (Z)-ajoene, e.g. using HPLC. It is speculated that small amounts of ajoene derived chemistry, i.e. compounds related to ajoene, such as less than 5%, 3%, 2%, 1%, such as less than 0.5% may be highly important in the stabilisation of (E,Z)-ajoene and derivatives, towards degradation, e.g. oxidation, reduction and or cleavage, both in vitro but importantly also in vivo.

Gram positive bacteria = conditions: E:Z=1:4 isomer used; cited from earlier work

Structure (SMILES): C=CCSSC=CC[S+]([O-])CC=C (stereo not shown) [ajoene, (E,Z)-4,5,9-trithiadodeca-1,6,11-triene-9-oxide]
- growth inhibitory effects (P. aeruginosa cultures): do not exert any growth inhibitory effects
- clearing of implants, single treatment versus placebo group (wild-type P. aeruginosa; CFU per implant 72 hours after insertion): significant difference in clearing
- clearing of implants, between the two single treatment groups (wild-type P. aeruginosa; ajoene versus tobramycin): no significant difference in clearing
- lowering of expression of lasB (RT-PCR) (lasB): ~5 fold
- lowering of expression of rhlA (RT-PCR) (rhlA): ~12 fold
- killing of the biofilm bacteria, single agent [1]: no or only minor killing
- difference in clearance between treated and placebo groups (P. aeruginosa PAO1; day three, 25 μg/g mouse once a day subcutaneous, two days prophylactic, three experiments combined): 500 fold
- tolerability of the administered dosage (P. aeruginosa PAO1; mouse, in vivo): tolerated well
- biological activity after further purification [2]: lost all or parts of its biological activity
- growth inhibition of Gram positive bacteria (Gram positive bacteria): strong growth inhibitor
